Results: patent publication US6956049B1, “Methods of modulating processes mediated by excitatory amino acid receptors” (Merck & Co., Inc., priority 1999, dated 2005)
Where a name gives a salt, the structure may show the parent alone.

Assays:
hmGluR5 = target: T1, hmGluR5 (Homo sapiens, UniProt P41594); test: Phosphatidylinositol hydrolysis (IP1) assay; format: cell-based; conditions: hmGluR5/L38-20 cells (mouse fibroblast Ltk), [3H]-inositol, 10 μM glutamate, 1 hour; read-out: PI Hydrolysis
T1 construct: expressed in transfected cells; host or cells: mouse fibroblast Ltk cells (hmGluR5/L38-20 cells)
Method: Inositol phophate assays were performed as described by Berridge et al. (1982) (Berridge et al, (1982) Biochem. J. 206:587–5950; and Nakajima et al., J. Biol. Chem. 267:2437–2442 (1992)) with slight modifications. Mouse fibroblast Ltk cells expressing hmGluR5 (hmGluR5/L38-20 cells) were seeded in 24-well plates at a density of 8×10^5 cells/well. One μCi of [^3H]-inositol (Amersham PT6-271; Arlington Heights, Ill.; specific activity=17.7 Ci/mmol) was added to each well and incubated for 16 h at 37° C. Cells were washed twice and incubated for 45 min in 0.5 ml of standard Hepes buffered saline buffer (HBS; 125 mM NaCl, 5 mM KCl, 0.62 mM MgSO4, 1.8 mM CaCl2, 20 mM HEPES, 6 mM Glucose, pH to 7.4). The cells were washed with HBS containing 10 mM LiCl, and 400 μl buffer added to each well. Cells were incubated at 37° C. for 20 min. For testing, 50 μl of 10X compounds used in the practice of the invention (made in HBS/LiCl (100 mM)) was added and incubated for 10 minutes. Cells were activated by the addition of 10 μM glutamate, and the plates left for 1 hour at 37° C.
The incubations were terminated by the addition of 1 ml ice-cold methanol to each well. In order to isolate inositol phosphates (IPs), the cells were scraped from wells, and placed in numbered glass test tubes. One ml of chloroform was added to each tube, the tubes were mixed, and the phases separated by centrifugation. IPs were separated on Dowex anion exchange columns (AG 1-X8 100–200 mesh formate form). The upper aqueous layer (750 ul) was added to the Dowex columns, and the columns eluted with 3 ml of distilled water. The eluents were discarded, and the columns were washed with 10 mls of 60 mM ammonium formate/5 mM Borax, which was also discarded as waste. Finally the columns were eluted with 4 ml of 800 mM ammonium formate/0.1 M formic acid, and the samples collected in scintillation vials. Scintillant was added to each vial, and the vials shaken, and counted in a scintillation counter after 2 hours. Phosphatidylinositol hydrolysis in cells treated with test compounds was compared to phosphatidylinositol hydrolysis in cells treated with control and the results are shown in Table 1.

hmGluR5a receptor = target: T2, hmGluR5a receptor (Homo sapiens, UniProt P41594); test: Calcium flux assay; format: cell-based; conditions: hmGluR5a/L38-20 cells (mouse fibroblast Ltk), fura-2, glutamate 10 μM (EC80); read-out: Ca^2+ Flux
T2 construct: expressed in transfected cells; host or cells: mouse fibroblast Ltk cells (hmGluR5a/L38-20 cell line)
Method: The activity of compounds was examined against the hmGluR5a receptor stably expressed in mouse fibroblast Ltk cells (the hmGluR5a/L38-20 cell line). See generally Daggett et al., Neuropharmacology 34:871–886 (1995). Receptor activity was detected by changes in intracellular calcium ([Ca^++]i) measured using the fluorescent calcium-sensitive dye, fura-2. hmGluR5a/L38-20 cells were plated onto 96-well plates, and loaded with 3 μM fura-2 for 1 h. Unincorporated dye was washed from the cells, and the cell plate was transferred to a custom-built 96-channel fluorimeter (SIBIA-SAIC, La Jolla, Calif.) which is integrated into a fully automated plate handling and liquid delivery system. Cells were excited at 350 and 385 nm with a xenon source combined with optical filters. Emitted light was collected from the sample through a dichroic mirror and a 510-nm interference filter and directed into a cooled CCD camera (Princeton Instruments). Image pairs were captured approximately every 1 s, and ratio images were generated after background subtraction. After a basal reading of 20 s, an EC80 concentration of glutamate (10 μM) was added to the well, and the response evaluated for another 60 s. The glutamate-evoked increase in [Ca^++]i in the presence of the screening compound was compared to the response of glutamate alone (the positive control).

[1] = Assessment of salt forms (solubility, hygroscopicity); format: physicochemical; conditions: salt form
Method: Various salt forms of 2-(phenylethynyl)-1,3-thiazole were prepared, and their solubility, hygroscopicity, and physical state were assessed. The compound 2-phenylethynl-1,3-thiazole was prepared (see Example 8) as well as hydrochloric acid, fumaric acid, methylsulfonic acid and toluene sulfonic acid salt forms of the compound. The hydrochloric acid salt form of 2-(phenylethynyl)-1,3-thiazole is an oil. A fumaric acid salt form was not obtained by preparative steps including trituration with diethylether. Preparation of the methylsulfonate form results in a semi solid, hygroscopic material. These salt forms are typically unsuitable for certain pharmaceutical formulations, such as for tablets, capsules, and the like. In contrast to the salt forms of 2-(phenylethynyl)-1,3-thiazole, described previously, the tosylate salt form (i.e., the toluene sulfonic acid salt) is a solid having a melting point of about 129 up to 131° C. and is non-hygroscopic. Therefore, this form is presently preferred for pharmaceutical formulations of tablets, capsules, and the like.

[2] = tested on: male Sprague-Dawley rats, CFA-inflamed hind paw; test: Analgesic animal model (CFA model); format: in vivo; set-up: key: +++: high analgesic efficacy; conditions: rat, 240 μmol/kg intraperitoneal, evaluated one to 24 hours post administration
Method: Compounds that modulate receptor-mediated analgesic responses wer tested in an animal model. Robust inflammation was induced by the injection of complete Freund's adjuvant (CFA, 10 mg/ml) subcutaneously into the hind paw of male Sprague-Dawley rats (150–175 g). The inflammatory response to CFA began approximately 12-hrs post-CFA injection and persisted for several days following inoculation. The inflamed hind paw became sensitive to noxious (paw pinch, plantar test) or innocuous (cold plate, Von Frey filaments) stimuli compared to the contralateral hind paw. Test compounds (240 μmol/kg) were administered via intraperitoneal injection. The analgesic activity of compounds was evaluated one to 24-hours post administration by assessing (1) the duration of analgesic effect; (2) threshold to elicit response; and (3) time from painful stimulus to response. […] For each group of animals, responses following drug administration were compared to responses prior to drug administration.

T2 sequence (P41594 21-1180 isoform P41594-2 limits assumed): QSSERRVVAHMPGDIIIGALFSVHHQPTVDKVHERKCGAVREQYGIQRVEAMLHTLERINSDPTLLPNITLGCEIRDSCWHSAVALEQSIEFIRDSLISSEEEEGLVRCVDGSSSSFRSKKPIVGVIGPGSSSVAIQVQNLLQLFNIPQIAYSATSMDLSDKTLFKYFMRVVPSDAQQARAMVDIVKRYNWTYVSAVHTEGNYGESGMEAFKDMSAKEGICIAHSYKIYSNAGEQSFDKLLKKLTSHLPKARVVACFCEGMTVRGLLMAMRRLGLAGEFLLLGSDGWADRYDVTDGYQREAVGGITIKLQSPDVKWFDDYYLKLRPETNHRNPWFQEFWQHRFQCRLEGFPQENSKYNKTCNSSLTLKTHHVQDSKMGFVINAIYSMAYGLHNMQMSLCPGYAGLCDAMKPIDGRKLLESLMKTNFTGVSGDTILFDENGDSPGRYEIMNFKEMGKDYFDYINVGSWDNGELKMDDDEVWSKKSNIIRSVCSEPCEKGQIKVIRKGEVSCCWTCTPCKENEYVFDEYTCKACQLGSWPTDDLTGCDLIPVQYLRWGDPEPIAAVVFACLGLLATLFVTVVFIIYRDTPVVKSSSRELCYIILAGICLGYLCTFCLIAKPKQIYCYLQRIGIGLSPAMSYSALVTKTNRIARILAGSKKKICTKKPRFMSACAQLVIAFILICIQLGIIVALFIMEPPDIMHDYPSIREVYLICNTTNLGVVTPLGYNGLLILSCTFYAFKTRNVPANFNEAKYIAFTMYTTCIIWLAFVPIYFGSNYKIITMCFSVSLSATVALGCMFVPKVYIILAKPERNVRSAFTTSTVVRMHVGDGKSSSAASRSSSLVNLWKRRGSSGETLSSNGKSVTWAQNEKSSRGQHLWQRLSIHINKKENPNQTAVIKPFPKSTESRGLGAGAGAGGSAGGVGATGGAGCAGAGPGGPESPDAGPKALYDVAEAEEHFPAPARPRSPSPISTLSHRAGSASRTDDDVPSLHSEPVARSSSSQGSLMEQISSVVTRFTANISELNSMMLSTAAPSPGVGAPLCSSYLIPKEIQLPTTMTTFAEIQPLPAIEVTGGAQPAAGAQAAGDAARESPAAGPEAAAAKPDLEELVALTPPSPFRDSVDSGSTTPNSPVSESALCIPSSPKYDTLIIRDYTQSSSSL
T1 sequence (P41594 21-1180 isoform P41594-2 limits assumed): as above

Cc1csc(C=Cc2ccccc2)n1 (mixture of isomers) [Example 2, 4-Methyl-2-[2-phenylethenyl]-1,3-thiazole]
IC50 (hmGluR5): 10000 to 100000 nM
IC50 (hmGluR5a receptor): 10 to 100 nM

Cc1coc(/C=C/c2ccccc2)n1 [Example 1, 4-Methyl-2-[(E)-2-phenylethenyl]-1,3-oxazole]
IC50 (hmGluR5): 10000 to 100000 nM
IC50 (hmGluR5a receptor): 1000 to 10000 nM

Cc1nc(/C=C/c2ccccc2)cs1 [Example 3, 2-Methyl-4-[(E)-2-phenylethenyl]-1,3-thiazole]
IC50 (hmGluR5): 1000 to 10000 nM
IC50 (hmGluR5a receptor): 100 to 1000 nM

Cc1nc(C#Cc2ccccc2)cs1 [Example 4, 2-Methyl-4-(phenylethynyl)-1,3-thiazole, p-toluenesulfonic acid salt]
IC50 (hmGluR5): ≤ 100 nM
IC50 (hmGluR5a receptor): ≤ 10 nM

Nc1nc(C#Cc2ccccc2)cs1 [Example 5, 4-(Phenylethynyl)-1,3-thiazol-2-amine, p-toluenesulfonic acid salt]
IC50 (hmGluR5): 100 to 1000 nM
IC50 (hmGluR5a receptor): 10 to 100 nM

Cc1ncsc1C#Cc1ccccc1 [Example 6, 4-Methyl-5-(phenylethynyl)-1,3-thiazole]
IC50 (hmGluR5): 10000 to 100000 nM
IC50 (hmGluR5a receptor): 10 to 100 nM

Cc1ncsc1C#Cc1ccccc1F [Example 7, 5-[(2-Fluorophenyl)ethynyl]-4-methyl-1,3-thiazole]
IC50 (hmGluR5): > 100000 nM
IC50 (hmGluR5a receptor): 100 to 1000 nM

C(#Cc1nccs1)c1ccccc1.Cc1ccc(S(=O)(=O)O)cc1 [Example 8, 2-(Phenylethynyl)-1,3-thiazole, p-toluenesulfonic acid salt]
hygroscopicity [1]: non-hygroscopic
solubility in aqueous medium [1]: soluble in aqueous medium
CFA Model (analgesic efficacy) [2]: +++
IC50 (hmGluR5): 100 to 1000 nM
IC50 (hmGluR5a receptor): ≤ 10 nM

Brc1csc(C#Cc2ccccc2)n1 [Example 9, 4-bromo-2-(phenylethynyl)-1,3-thiazole]
melting point: 79 to 82 °C
IC50 (hmGluR5): 1000 to 10000 nM
IC50 (hmGluR5a receptor): 10 to 100 nM

Cc1cnc(C#Cc2ccccc2)s1 [Example 10, 5-Methyl-2-(phenylethynyl)-1,3-thiazole]
melting point: 82 to 83 °C
IC50 (hmGluR5): > 100000 nM
IC50 (hmGluR5a receptor): > 10000 nM

Cc1cccc(C#Cc2nccs2)c1 [Example 11, 2-[(3-methylphenyl)ethynyl]-1,3-thiazole]
IC50 (hmGluR5): 100 to 1000 nM
IC50 (hmGluR5a receptor): 10 to 100 nM

Fc1ccc(C#Cc2nccs2)cc1 [Example 12, 2-[(4-Fluorophenyl)ethynyl]-1,3-thiazole]
melting point: 78 to 79 °C
IC50 (hmGluR5): 1000 to 10000 nM
IC50 (hmGluR5a receptor): 100 to 1000 nM

Fc1ccccc1C#Cc1nccs1 [Example 13, 2-[(2-Fluorophenyl)ethynyl]-1,3-thiazole]
IC50 (hmGluR5): 100 to 1000 nM
IC50 (hmGluR5a receptor): 10 to 100 nM

Cc1nc(C#Cc2ccccc2)sc1C [Example 14, 4,5-Dimethyl-2-(phenylethynyl)-1,3-thiazole]
melting point: 55 to 60 °C
IC50 (hmGluR5): 1000 to 10000 nM
IC50 (hmGluR5a receptor): ≤ 10 nM

Cc1nc(/C=C/c2ccccc2)no1 [Example 15, 5-Methyl-3-[(E)-2-phenylethenyl]-1,2,4-oxadiazole]
melting point: 166 to 168 °C
IC50 (hmGluR5): > 100000 nM
IC50 (hmGluR5a receptor): > 10000 nM

C(=C\c1ncno1)/c1ccccc1 [Example 16, 5-[(E)-2-phenylethenyl]-1,2,4-oxadiazole]
melting point: 53 to 55 °C
IC50 (hmGluR5): > 100000 nM
IC50 (hmGluR5a receptor): > 10000 nM

Cn1ncnc1/C=C/c1ccccc1 [Example 17, 1-Methyl-5-[(E)-2-phenylethenyl]-1H-1,2,4-triazole]
melting point: 67 to 70 °C
IC50 (hmGluR5): > 100000 nM
IC50 (hmGluR5a receptor): > 10000 nM

Cc1n[nH]c(/C=C/c2ccccc2)n1 [Example 18, 3-Methyl-5-[(E)-2-phenylethenyl]-1H-1,2,4-triazole]
melting point: 131 to 134 °C
IC50 (hmGluR5): > 100000 nM
IC50 (hmGluR5a receptor): > 10000 nM

CCOC(=O)c1nc(/C=C/c2ccccc2)ns1 [Example 19, Ethyl 3-[(E)-2-phenylethenyl]-1,2,4-thiadiazole-5-carboxylate]
melting point: 79 to 80 °C
IC50 (hmGluR5): 10000 to 100000 nM
IC50 (hmGluR5a receptor): 100 to 1000 nM

OCc1nc(/C=C/c2ccccc2)ns1 [Example 20, {3-[(E)-2-phenylethenyl]-1,2,4-thiadiazol-5-yl}methanol]
melting point: 119 to 120 °C
IC50 (hmGluR5): > 100000 nM
IC50 (hmGluR5a receptor): 1000 to 10000 nM

Cc1ccc(C#CC2=CCCCC2)s1 [Example 21, 2-(1-Cyclohexen-1-ylethynyl)-5-methylthiophene]
IC50 (hmGluR5): > 100000 nM
IC50 (hmGluR5a receptor): > 10000 nM

C(#Cc1nccs1)c1ccccc1 [methylsulfonate form, 2-(phenylethynyl)-1,3-thiazole]
hygroscopicity [1]: hygroscopic
